According to patent US20250283178A1, “FOXC1 EXPRESSION AS A COMPLEMENTARY DIAGNOSTIC ASSAY FOR PREDICTING EFFICACY OF ONCOLOGY DRUGS AND DRUG COMBINATION REGIMENS AND METHODS FOR USE” (3N DIAGNOSTICS LTD., priority 2022, published 2025):

Key:
[1] = test system: TNBC cells; conditions: cited from earlier work
[2] = test system: ER and or PR-positive cells; conditions: Wang et al., 2015; cited from earlier work
[3] = test system: binding of SOX9 to FOXC1; conditions: Tang et al., 2020; cited from earlier work
[4] = test system: TNBC; conditions: Raninga et al., 2020; cited from earlier work
[5] = test system: ER+ breast cancer; conditions: Kornblum et al., 2018; cited from earlier work
[6] = test system: TNBC; conditions: two separate Phase II trials (Jovanovic et al., 2017; Park et al., 2018); cited from earlier work
[7] = test system: breast cancer; conditions: Ginestier et al., 2010; cited from earlier work
[8] = test system: gastric cancer; conditions: Wang et al., 2016b; cited from earlier work
[9] = test system: HER2-positive breast cancer; conditions: Singh et al., 2013, cited from earlier work
[10] = test system: breast CSC count in preoperative tumors; conditions: Goldstein et al., 2020; cited from earlier work
[11] = test system: TGFβ1; conditions: through a GLI2 inhibitory mechanism; Didiasova et al., 2017; cited from earlier work
[12] = test system: fibroblast activation and tumor-fibroblast crosstalk; conditions: Fujiwara et al., 2020; cited from earlier work
[13] = test system: cancer-associated fibroblasts; conditions: Aboulkheyr Es et al., 2020; cited from earlier work
[14] = test system: lung, liver and colon cancer; conditions: combination; Qin et al., 2020; cited from earlier work
[15] = test system: TNBC patients; assay: I-SPY2 neoadjuvant Durvalumab arm, pathologic complete response by MK167+FOXC1 predictor; format: in vivo, human; conditions: Durvalumab Arm: Olaparib+Paclitaxel+Durvalumab
Experimental: (§1) Methods. 41 Pre-NACT tumor biopsy MK167 and FOXC1 mRNA expression values were retrospectively obtained from TNBC patients and HER2 negative ER+ breast cancer patients who had been enrolled and treated in the I-SPY2 clinical trial (Durvalumab arm: 21, Control arm: 20) and correlated with the rate of observed pathologic complete response (pCR). The area under the curve (AUC) of each model was calculated and used to determine suitable cutoff values to maximize Negative Predictive Value (NPV) and Sensitivity for pCR prediction.
as §1, with “TNBC” for “TNBC patients and HER2 negative ER+ breast cancer”

[16] = test system: HER2 negative ER+ breast cancer patients; assay: as above; format: in vivo, human; conditions: FIG. 16
Experimental: as §1

[17] = test system: in vitro FOXC1+ cancer model; conditions: concurrent treatment with Wnt signaling inhibition; Ray et al., 2015b; cited from earlier work
[18] = test system: leukemia stem cells; conditions: Fukushima et al., 2016; cited from earlier work
[19] = test system: GLI2; conditions: abrogates leukemia stem cell dormancy; Sadarangani et al., 2015; cited from earlier work
[20] = test system: ER+LN-breast cancer patients; assay: Adjuvant chemotherapy added to adjuvant Tamoxifen, all-cause mortality (SCAN-B dataset); format: in vivo, human; conditions: FOXC1 greater than 60th percentile or VERESCA FOXC1 IHC Score of 2; adjuvant Tamoxifen X 5 years with or without adjuvant chemotherapy
From the text: The prognostic utility of the VERESCA® FOXC1 IHC assay and the VERESCA® FOXC1Clin Criteria recurrence risk score was additionally validated in a second independent clinical trial dataset (SCAN-B) comprising 3207 breast cancer patients for whom clinical, treatment, gene expression data and outcomes data (Overall Survival) were available.
FOXC1 expression cutoff value was 60th percentile of expression of FOXC1 mRNA on qRTPCR, 60th percentile of expression of FOXC1 mRNA on RNA-Seq, or FOXC1 Score of 2 using VERESCA® FOXC1 IHC kit. FOXC1 expression less than the 60th percentile (FOXC1<60TH % ILE) by mRNA EXPRESSION or <VERESCA® FOXC1 IHC Score of 2 predicts LOW RISK and efficacy of the current standard of care which is adjuvant Tamoxifen X 5 years) in successfully reducing disease recurrence risk, and its resultant impact on all-cause mortality, without the need for additional/adjuvant chemotherapy.
The ability of the VERESCA® FOXC1Clin criteria recurrence risk score to predict a statistically significant decrease in all-cause mortality rate in the 8-year period post-diagnosis in response to having received adjuvant chemotherapy in addition to adjuvant Tamoxifen therapy was validated in SCAN-B clinical trial dataset (Odds Ratio 6.477 [Cl 2.974-14.107], p=0.0000001).

[21] = test system: CXCR4-mediated invasion and metastasis; conditions: Pan et al., 2018; cited from earlier work
[22] = test system: prostate cancer; conditions: Gravina et al., 2015; cited from earlier work
[23] = test system: cancer stem cells in AML and glioblastoma; conditions: Hira et al., 2020; cited from earlier work

CN(C)C/C=C/C(=O)Nc1ccc(C(=O)Nc2cccc(Nc3ncc(Cl)c(-c4c[nH]c5ccccc45)n3)c2)cc1 [THZ1]
sensitivity of cell proliferation ([1]; CDK7 inhibitor, Wang et al., 2015): selectively sensitive | apoptotic cell death ([1]; Tang et al., 2020): increasing apoptotic cell death | effect of treatment on cells [2]: largely unaffected | binding of SOX9 to FOXC1 and enhancer/SE-associated transcription factors [3]: significantly disrupted

C[C@@]12OC(=O)[C@]1([C@@H](O)[C@@H]1C=CCCC1)NC(=O)[C@@H]2CCCl [Marizomib]
development of lung and brain metastasis [4]: significantly reduced the development of lung and brain metastasis | tumor growth [4]: marked decline in tumor growth

CO[C@H]1C[C@@H]2CC[C@@H](C)[C@@](O)(O2)C(=O)C(=O)N2CCCC[C@H]2C(=O)O[C@H]([C@H](C)C[C@@H]2CC[C@@H](OCCO)[C@H](OC)C2)CC(=O)[C@H](C)/C=C(\C)[C@@H](O)[C@@H](OC)C(=O)[C@H](C)C[C@H](C)/C=C/C=C/C=C/1C [Everolimus]
progression free survival [5]: prolong progression free survival | efficacy [6]: failed to show any demonstrable efficacy

CC(C)Cc1ccc([C@@H](C)C(=O)NS(C)(=O)=O)cc1 [Repartaxin]
therapeutic efficacy [7]: therapeutic efficacy | therapeutic efficacy [8]: therapeutic efficacy | breast CSC activity [9]: successfully reduced breast CSC activity | therapeutic efficacy in combination ([9]; combined with Lapatinib): enhanced therapeutic efficacy when combined with Lapatinib | decrease in breast CSC count [10]: more than 20%

Cc1ccc(=O)n(-c2ccccc2)c1 [Pirfenidone]
fibrosis / TGFβ1 [11]: decrease fibrosis by decreasing TGFβ1 | fibroblast activation and tumor-fibroblast crosstalk in the TME [12]: capable of inhibiting fibroblast activation and tumor-fibroblast crosstalk | immunosuppressive capacity of cancer-associated fibroblasts [13]: successful in reducing immunosuppressive capacity | therapeutic benefit of PD1/PDL1 immune checkpoint blockade [14]: augment the observed therapeutic benefit

Durvalumab
pCR rate ([15]; predicted non-responders (MK167+FOXC1 mRNA)): 0% | pCR rate ([15]; predicted responders (MK167+FOXC1 mRNA)): 75% | pCR rate ([16]; predicted non-responders): 15.38% | pCR I rate ([16]; predicted responders): 38.1% | pCR II rate ([16]; predicted responders): 62.5%

CC(C)C[C@H](NC(=O)[C@H](Cc1ccccc1)NC(=O)c1cnccn1)B(O)O [Bortezomib]
emergence of resistant clones / cancer stem cell escape [17]: prevented the emergence of such resistant clones

CN1CC[C@@H](NC(=O)Nc2ccc(C#N)cc2)C[C@@H]1c1nc2ccccc2[nH]1 [Glasdegib]
targeting of leukemia stem cells [18]: successfully target leukemia stem cells | downstream effect on GLI2 [19]: GLI2 inhibition

CC/C(=C(\c1ccccc1)c1ccc(OCCN(C)C)cc1)c1ccccc1 [Tamoxifen]
risk of death (all-cause mortality) [20]: greater than 24%

c1cc(CN2CCCNCCNCCCNCC2)ccc1CN1CCCNCCNCCCNCC1 [Plerixafor]
CXCR4-mediated invasion and metastasis [21]: successful in reversing the CXCR4-mediated invasion and metastasis | incidence of bone metastasis [22]: successfully reduce the incidence of bone metastasis | mobilization of cancer stem cells from their niche [23]: mobilize cancer stem cells from their niche
